# Source: US20240228488A1 (TAKEDA PHARMACEUTICAL COMPANY LIMITED, priority 2021, published 2024)
# pEC50: −log10 of the molar value.
# Legend:
# [1] = target: T1, plasma kallikrein (Homo sapiens, UniProt P03952); experiment: Neat human plasma assay, FXIIa contact pathway-activated, PFR-AMC substrate; assay type: biochemical; conditions: citrated human plasma 78% final, 10 nM human FXIIa, 100 μM PFR-AMC; read-out: Human Plasma Assay: IC90
# T1 construct: from tissue
# Summary of the method: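 Compound inhibition of plasma kallikrein measured as PFR-AMC (100 μM) cleavage rate over 5 min at room temperature in 78% citrated human plasma activated with 10 nM FXIIa (Tris pH 7.5 buffer). IC50/IC90 from 4-parameter fit of rate versus inhibitor concentration.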
# [2] = target: human activated kallikrein enzyme (Homo sapiens, UniProt P03952); experiment: Plasma kallikrein inhibition, fluorogenic PFR-AMC substrate, 500 pM activated kallikrein format; assay type: biochemical; conditions: 500 pM activated kallikrein, 300 uM PFR-AMC, 30 min preincubation, 10 min reaction; read-out: Primary Dose Response Assay: Average EC50
# Summary of the method: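 Fluorescence (ex 380/em 460 nm) is read after 10 min of 300 uM PFR-AMC turnover by 500 pM enzyme at RT. Compounds sit with enzyme for 30 min beforehand. Buffer is Tris (pH 7.5) with EDTA, NaCl, PEG-400 and Triton X-100; EC50 values are banded.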
# T1 sequence (P03952 391-638 limits assumed): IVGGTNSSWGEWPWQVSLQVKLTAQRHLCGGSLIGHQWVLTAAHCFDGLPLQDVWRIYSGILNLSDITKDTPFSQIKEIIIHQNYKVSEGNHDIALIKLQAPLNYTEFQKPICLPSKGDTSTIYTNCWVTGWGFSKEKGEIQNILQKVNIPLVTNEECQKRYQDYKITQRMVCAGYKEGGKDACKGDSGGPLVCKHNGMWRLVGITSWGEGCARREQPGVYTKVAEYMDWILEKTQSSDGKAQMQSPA
# T1 sequence (P03952 20-390 partner limits assumed): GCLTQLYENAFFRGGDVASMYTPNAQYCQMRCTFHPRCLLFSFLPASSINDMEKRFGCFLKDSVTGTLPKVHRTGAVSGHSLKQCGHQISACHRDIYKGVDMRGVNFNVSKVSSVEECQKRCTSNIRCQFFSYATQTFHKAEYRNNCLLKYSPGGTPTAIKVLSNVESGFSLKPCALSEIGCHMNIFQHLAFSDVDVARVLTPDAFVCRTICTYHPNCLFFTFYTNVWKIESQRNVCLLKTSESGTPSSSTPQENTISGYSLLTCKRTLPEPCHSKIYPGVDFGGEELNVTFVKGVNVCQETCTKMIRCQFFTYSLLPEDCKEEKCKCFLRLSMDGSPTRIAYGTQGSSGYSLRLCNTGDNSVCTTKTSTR
# Chain of human activated kallikrein enzyme (P03952 391-638 limits assumed): as the sequence (P03952 391-638 limits assumed) above
# Chain of human activated kallikrein enzyme (P03952 20-390 partner limits assumed): as the sequence (P03952 20-390 partner limits assumed) above
Compound,IC90 [1] [nM],pEC50 [2]
"Cc1ccnc([C@H]2C[C@@H]2C(=O)Nc2cc(N(C)Cc3cn4cc(C5CC5)cc(N5CC(=O)N(CCOCc6ccccc6)C5=O)c4n3)cc(C3CC3)n2)n1 [Example I-636, (1S,2S)—N-(4-(((8-(3-(2-(benzyloxy)ethyl)-2,4-dioxoimidazolidin-1-yl)-6-cyclopropylimidazo[1,2-a]pyridin-2-yl)methyl)(methyl)amino)-6-cyclopropylpyridin-2-yl)-2-(4-methylpyrimidin-2-yl)cyclopropane-1-carboxamide]",1500 to 10000,8.00 to 9.00
"Cc1ccnc([C@H]2C[C@@H]2C(=O)Nc2cc(NCc3cn4cc(C5CC5)cc(N5CC(=O)N(C)C5=O)c4n3)nc(C)n2)n1 (racemic) [Example 366, rac-(1S*,2S*)-N-(6-(((6-cyclopropyl-8-(3-methyl-2,4-dioxoimidazolidin-1-yl)imidazo[1,2-a]pyridin-2-yl)methyl)amino)-2-methylpyrimidin-4-yl)-2-(4-methylpyrimidin-2-yl)cyclopropane-1-carboxamide]",< 400,> 9.00
"NCc1cc(C2CC2)cn2cc(CNc3ccnc(NC(=O)[C@H]4C[C@@H]4c4cccc(Cl)c4)c3)nc12 [Example 293, (1S,2S)—N-(4-(((8-(aminomethyl)-6-cyclopropylimidazo[1,2-a]pyridin-2-yl)methyl)amino)pyridin-2-yl)-2-(3-chlorophenyl)cyclopropane-1-carboxamide]",1500 to 10000,> 9.00
"Cc1ccnc([C@H]2C[C@@H]2C(=O)Nc2cc(NCc3cn4cc(C5CC5)cc(N5CC(=O)N(C)C5=O)c4n3)cc(C(F)(F)F)n2)n1 (racemic) [Example 618, rac-(1S*,2S*)—N-(4-(((6-cyclopropyl-8-(3-methyl-2,4-dioxoimidazolidin-1-yl)imidazo[1,2-a]pyridin-2-yl)methyl)amino)-6-(trifluoromethyl)pyridin-2-yl)-2-(4-methylpyrimidin-2-yl)cyclopropane-1-carboxamide]",400 to 1500,> 9.00
"Cc1ccnc([C@H]2C[C@@H]2C(=O)Nc2cc(N3C[C@@H](O)C[C@@H]3c3cn4cc(C5CC5)cc(N5CCOC5=O)c4n3)ncn2)n1 (relative stereo) [Example 471, rac-(1S*,2S*)-N-(6-((2R,4S)-2-(6-cyclopropyl-8-(2-oxooxazolidin-3-yl)imidazo[1,2-a]pyridin-2-yl)-4-hydroxypyrrolidin-1-yl)pyrimidin-4-yl)-2-(4-methylpyrimidin-2-yl)cyclopropane-1-carboxamide]",400 to 1500,> 9.00
"CC(C)(O)c1cc(C2CC2)cn2cc(CNc3ccnc(NC(=O)[C@H]4C[C@@H]4c4cccc(Cl)c4)c3)nc12 [Example 122, (1S,2S)-2-(3-chlorophenyl)-N-(4-(((6-cyclopropyl-8-(2-hydroxypropan-2-yl)imidazo[1,2-a]pyridin-2-yl)methyl)amino)pyridin-2-yl)cyclopropane-1-carboxamide]",10000 to 48000,8.00 to 9.00
"O=C(Nc1cc(N2C[C@@H](O)C[C@@H]2c2cn3cc(C4CC4)ccc3n2)ccn1)[C@H]1C[C@@H]1c1cccc(Cl)c1 [Example 282, (1S,2S)-2-(3-chlorophenyl)-N-(4-((2R,4S)-2-(6-cyclopropylimidazo[1,2-a]pyridin-2-yl)-4-hydroxypyrrolidin-1-yl)pyridin-2-yl)cyclopropane-1-carboxamide]",1500 to 10000,8.00 to 9.00
"Cc1ccnc([C@H]2C[C@@H]2C(=O)Nc2nc(C3CC3)nc(N(C)Cc3cn4cc(C5CC5)cc(N5CC(=O)NC5=O)c4n3)n2)n1 (racemic) [Example 522, rac-(1S*,2S*)-N-(4-cyclopropyl-6-(((6-cyclopropyl-8-(2,4-dioxoimidazolidin-1-yl)imidazo[1,2-a]pyridin-2-yl)methyl)(methyl)amino)-1,3,5-triazin-2-yl)-2-(4-methylpyrimidin-2-yl)cyclopropane-1-carboxamide]",400 to 1500,> 9.00
"Cc1ccnc([C@H]2C[C@@H]2C(=O)Nc2cc(NC(C)c3cn4cc(C5CC5)cc(N5CC(=O)N(C)C5=O)c4n3)ncn2)n1 (relative stereo) [Example 449, rac-(1S*,2S*)—N-(6-((1-(6-cyclopropyl-8-(3-methyl-2,4-dioxoimidazolidin-1-yl)imidazo[1,2-a]pyridin-2-yl)ethyl)amino)pyrimidin-4-yl)-2-(4-methylpyrimidin-2-yl)cyclopropane-1-carboxamide]",1500 to 10000,> 9.00
"CN1CCN(C(=O)c2cc(C3CC3)cn3cc(CNc4cc(NC(=O)[C@H]5C[C@@H]5c5cccc(Cl)c5)ncn4)nc23)CC1 [Example 301, (1S,2S)-2-(3-chlorophenyl)-N-(6-(((6-cyclopropyl-8-(4-methylpiperazine-1-carbonyl)imidazo[1,2-a]pyridin-2-yl)methyl)amino)pyrimidin-4-yl)cyclopropane-1-carboxamide]",1500 to 10000,> 9.00
"CN1CCN(c2cc(C3CC3)cn3cc(CNc4cc(NC(=O)[C@H]5C[C@@H]5c5cccc(Cl)c5)ncn4)nc23)CC1 [Example I-2, (1S,2S)-2-(3-chlorophenyl)-N-(6-(((6-cyclopropyl-8-(4-methylpiperazin-1-yl)imidazo[1,2-a]pyridin-2-yl)methyl)amino)pyrimidin-4-yl)cyclopropane-1-carboxamide]",400 to 1500,> 9.00
"CC(=O)N(C)c1cc(C2CC2)cn2cc(CNc3ccnc(NC(=O)[C@H]4C[C@@H]4c4cccc(Cl)c4)c3)nc12 [Example 139, (1S,2S)-2-(3-chlorophenyl)-N-(4-(((6-cyclopropyl-8-(N-methylacetamido)imidazo[1,2-a]pyridin-2-yl)methyl)amino)pyridin-2-yl)cyclopropane-1-carboxamide]",400 to 1500,> 9.00
"CN1C(=O)CN(c2cc(C3CC3)cn3cc(CNc4cc(NC(=O)[C@H]5C[C@@H]5c5cc(Cl)ccc5C#N)ncn4)nc23)C1=O (racemic) [Example I-170, rac-(1S*,2S*)-2-(5-chloro-2-cyanophenyl)-N-(6-(((6-cyclopropyl-8-(3-methyl-2,4-dioxoimidazolidin-1-yl)imidazo[1,2-a]pyridin-2-yl)methyl)amino)pyrimidin-4-yl)cyclopropane-1-carboxamide]",1500 to 10000,> 9.00
"Cc1ccnc([C@H]2C[C@@H]2C(=O)Nc2cc(N(C)Cc3cn4cc(C5CC5)cc(N5CC(=O)NC5=O)c4n3)nc(C3CC3)n2)n1 [Example 408, (1S,2S)-N-(2-cyclopropyl-6-(((6-cyclopropyl-8-(2,4-dioxoimidazolidin-1-yl)imidazo[1,2-a]pyridin-2-yl)methyl)(methyl)amino)pyrimidin-4-yl)-2-(4-methylpyrimidin-2-yl)cyclopropane-1-carboxamide]",400 to 1500,8.00 to 9.00
"Cc1ccnc([C@H]2C[C@@H]2C(=O)Nc2cc(NCc3cn4cc(C5CC5)cc(N5CC(=O)N(C6CC6)C5=O)c4n3)ncn2)n1 [Example 384, (1S,2S)-N-(6-(((6-cyclopropyl-8-(3-cyclopropyl-2,4-dioxoimidazolidin-1-yl)imidazo[1,2-a]pyridin-2-yl)methyl)amino)pyrimidin-4-yl)-2-(4-methylpyrimidin-2-yl)cyclopropane-1-carboxamide]",< 400,> 9.00
"CCN1CCN(c2cc(C3CC3)cn3cc(CNc4cc(NC(=O)[C@H]5C[C@@H]5c5nccc(C)n5)ncn4)nc23)CC1 [Example 383, (1S,2S)-N-(6-(((6-cyclopropyl-8-(4-ethylpiperazin-1-yl)imidazo[1,2-a]pyridin-2-yl)methyl)amino)pyrimidin-4-yl)-2-(4-methylpyrimidin-2-yl)cyclopropane-1-carboxamide]",< 400,> 9.00
"CN1CCN(c2cc(C3CC3)cn3cc(CNc4cnnc(NC(=O)[C@H]5C[C@@H]5c5cccc(Cl)c5)c4)nc23)CC1 [Example 612, (1S,2S)-2-(3-chlorophenyl)-N-(5-(((6-cyclopropyl-8-(4-methylpiperazin-1-yl)imidazo[1,2-a]pyridin-2-yl)methyl)amino)pyridazin-3-yl)cyclopropane-1-carboxamide]",1500 to 10000,> 9.00
"O=C(Nc1cc(NCc2cn3cc(C4CC4)ccc3n2)ccn1)[C@@]1(F)C[C@@H]1c1cccc(Cl)c1 (racemic) [Example I-217, rac-(1S*,2S*)-2-(3-chlorophenyl)-N-(4-(((6-cyclopropylimidazo[1,2-a]pyridin-2-yl)methyl)amino)pyridin-2-yl)-1-fluorocyclopropane-1-carboxamide]",10000 to 48000,8.00 to 9.00
"CN1C(=O)CCN(c2cc(C3CC3)cn3cc(CNc4cc(NC(=O)[C@H]5C[C@@H]5c5cccc(Cl)c5)ncn4)nc23)C1=O [Example I-194, (1S,2S)-2-(3-chlorophenyl)-N-(6-(((6-cyclopropyl-8-(3-methyl-2,4-dioxotetrahydropyrimidin-1(2H)-yl)imidazo[1,2-a]pyridin-2-yl)methyl)amino)pyrimidin-4-yl)cyclopropane-1-carboxamide]",1500 to 10000,> 9.00
"CN1CCN(c2cc(C3CC3)cn3cc(CNc4cc(NC(=O)[C@H]5C[C@@H]5c5cccc(Cl)c5)ncn4)nc23)CC1CO (stereo partly drawn) [Example I-7, (1S,2S)-2-(3-chlorophenyl)-N-(6-(((6-cyclopropyl-8-(3-(hydroxymethyl)-4-methylpiperazin-1-yl)imidazo[1,2-a]pyridin-2-yl)methyl)amino)pyrimidin-4-yl)cyclopropane-1-carboxamide]",400 to 1500,8.00 to 9.00
